Results published in US20100105652A1, “PURINES AS CYSTEINE PROTEASE INHIBITORS” (Glaxo Group Limited, priority 2007, published 2010).
Counter-ions that a name gives are not always drawn.

What was measured:
[1] = target: T1, Falcipain-2 (Plasmodium falciparum, UniProt Q8I6U4); test: falcipain-2 enzymatic assay (fluorogenic substrate H-D-VLR-AFC, endpoint); type: biochemical; details: parasitic recombinant enzyme, pH 5.5, quenched after 60 minutes
T1 sequence (Q8I6U4 244-484): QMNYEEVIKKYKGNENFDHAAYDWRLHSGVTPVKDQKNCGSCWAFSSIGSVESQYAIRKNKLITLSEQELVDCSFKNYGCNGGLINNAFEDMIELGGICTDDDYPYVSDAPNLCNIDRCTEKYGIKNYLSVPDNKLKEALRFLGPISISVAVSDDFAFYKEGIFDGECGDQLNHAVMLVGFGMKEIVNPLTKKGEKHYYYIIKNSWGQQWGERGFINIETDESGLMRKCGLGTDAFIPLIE
Description: (§1) 1) Determination of Falcipain-2, Falcipain-3, Vivapain-2, and Cathepsin S Proteolytic Catalytic Activity
(§2) Assays for Falcipain-2, Falcipain-3, and Vivapain-2 are carried out with parasitic recombinant enzymes. Cathepsins S is carried out with human recombinant enzymes. Standard assay conditions for the determination of kinetic constants used a fluorogenic peptide substrate, typically H-D-VLR-AFC (Falcipain-2, Falcipain-3, Vivapain-2) or KQKLR-AMC (Cathepsin S) and are determined in 100 mM sodium acetate, pH 5.5, containing 10 mM DTT and 0.5 mM CHAPS (Falcipain-2, Falcipain-3, Vivapain-2), or 50 mM MES, pH 6.5, containing 0.5 mM CHAPS, 10 mM L-CYS, 5 mM EDTA (Cathepsin S). Stock substrate solutions are prepared at 20 mM in DMSO. The activity assays contained 30 uM substrate (Falcipain-2, Falcipain-3, Vivapain-2), and 30 uM substrate (Cathepsin S). All assays contained 1% DMSO. […] All assays are conducted at ambient temperature as end point assays being quenched after 60 minutes with the exception of Cathepsin S at 90 minutes, with 16.6 uM E-64 in 1% DMSO. Product formation (AFC or AMC) is determined from fluorescence (excitation at 405 nm; emission at 530 nm, AFC, or excitation at 360 nm; emission at 460 nm, AMC) monitored with a LJL Aquest (Molecular Devices) fluorescent plate reader. In the case of kinetic reads (used in mechanism of action studies), the reaction is not quenched but is read in the plate reader every 3 minutes for approximately 90 minutes. In addition, the mechanism of action studies for Falcipain-2 utilize Z-LR-AMC as the substrate. Product formation is determined from the fluorescence of AMC, measured with a LJL Acquest (Molecular Devices) fluorescent plate reader (excitation at 360 nm; emission at 460 nm).
(§3) Potential inhibitors are evaluated using the quenched read (endpoint) method. Assays are carried out in the presence of variable concentrations of test compound. Reactions are initiated by addition of enzyme and substrate to wells containing inhibitor stamped in 100% DMSO. For endpoint assays, the reaction is quenched with the addition of E64. Dose response data is fit to an IC50 curve with preset fitting tools according to equation 1:
(§4) y=a+(b−a)/(1+(10^X/10^C)^d) (1)
(§5) where y is the response at a particular inhibitor concentration x, a is the minimum response value, b is the maximum response value, c is the IC50, and d is the slope of the IC50 curve. Assuming the compound is a competitive inhibitor, the apparent KI can be calculated from IC50, as shown in equation 2: […]

[2] = target: T2, Falcipain-3 (Plasmodium falciparum, UniProt Q8IIL0); test: falcipain-3 enzymatic assay (fluorogenic substrate H-D-VLR-AFC, endpoint); type: biochemical; details: parasitic recombinant enzyme, pH 5.5, quenched after 60 minutes
T2 sequence (Q8IIL0 243-492): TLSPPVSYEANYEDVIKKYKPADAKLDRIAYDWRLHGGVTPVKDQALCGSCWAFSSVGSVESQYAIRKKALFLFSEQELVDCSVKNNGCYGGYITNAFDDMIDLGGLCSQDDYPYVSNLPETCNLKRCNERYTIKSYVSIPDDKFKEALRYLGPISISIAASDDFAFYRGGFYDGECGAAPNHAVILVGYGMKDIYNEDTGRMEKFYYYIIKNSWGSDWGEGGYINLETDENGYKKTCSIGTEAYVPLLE
Description: as §1, §2, §3, §4, §5

[3] = tested on: Plasmodium falciparum parasite; test: whole cell activity against the Plasmodium falciparum parasite; type: cell-based
Text: Equation 7 describes the apparent KI for competitive compounds and was substituted into equations 5 and 6 to generate the relevant binding constants from the fitting routine. In addition, the initial and final velocities were fit to equation 3 to further define the binding mechanism and potency. A complete discussion of this kinetic treatment has been fully described (Morrison et al., Adv. Enzymol. Relat. Areas Mol. Biol., 1988, 61, 201). 2) Determination of Whole Cell Activity Against the Plasmodium falciparum Parasite Compounds can be evaluated for whole cell activity against the Plasmodium falciparum parasite according to the procedure described in Sijwali S, and Rosenthal P. J., (2004) Proceedings of the National Academy of Sciences of the United States of America (PNAS) 101(13), 4384-4389 (see in particular “Measurement of Parasite Growth rates and Inhibitor Sensitivity” on page 4385); IC50 values can be calculated as described in Singh A. and Rosenthal P. J., (2001) Antimicrobial Agents and Chemotherapy 45(3), 949-951 (see in particular page 950, first column); synchronised parasites can be prepared as described in Divo A. A. et al., (1985) Protozool. 32, 59-64.

Row | SMILES | IC50 [1] [nM] | IC50 [2] [nM] | IC50 [3] [nM]
1 | CN(C)CCCn1cnc2c(N(NC(=O)c3cccc(N4CCN(C)CC4)c3)C3CCCC3)nc(C#N)nc21 [Example 37, N′-{2-cyano-9-[3-(dimethylamino)propyl]-9H-purin-6-yl}-N′-cyclo pentyl-3-4-methyl-1-piperazinyl)benzohydrazide trifluoroacetate] | 1 to 2.5 | 150 to 250 | 2.5 to 15
2 | CN(C)CCCn1cnc2c(N(CC3CCCC3)NC(=O)OC(C)(C)C)nc(C#N)nc21 [Example 12, 1,1-dimethylethyl 2-{2-cyano-9-[3-(dimethylamino)propyl]-9H-purin-6-yl}-2-(cyclopentylmethyl)hydrazinecarboxylate trifluoroacetate] | 1 to 2.5 | 15 to 150 | 15 to 150
3 | CN(C)CCn1cnc2c(N(CC3CCCC3)NC(=O)OC(C)(C)C)nc(C#N)nc21 [Example 13, 1,1-dimethylethyl 2-{2-cyano-9-[2-(dimethylamino)ethyl]-9H-purin-6-yl}-2-(cyclopentylmethyl)hydrazinecarboxylate trifluoroacetate] | ≤ 1 | 15 to 150 | 15 to 150
4 | CN1CCN(Cc2ccc(C(=O)NN(c3nc(C#N)nc4c3ncn4C)C3CCCC3)cc2)CC1 [Example 47, N′-(2-cyano-9-methyl-9H-purin-6-yl)-N′-cyclopentyl-4-[(4-methyl-1-piperazinyl)methyl]benzohydrazide trifluoroacetate] | 2.5 to 15 | 250 to 400 | 150 to 250
5 | CN(C)CCCn1cnc2c(N(NC(=O)OC(C)(C)C)C3CCOCC3)nc(C#N)nc21 [Example 19, 1,1-dimethylethyl 2-{2-cyano-9-[3-(dimethylamino)propyl]-9H-purin-6-yl}-2-(tetrahydro-2H-pyran-4-yl)hydrazinecarboxylate trifluoroacetate] | 2.5 to 15 | 15 to 150 | 15 to 150
6 | CN1CCN(C2CCN(Cc3ccc(C(=O)NN(c4nc(C#N)nc5c4ncn5C)C4CCCCC4)cc3)CC2)CC1 [Example 8, N′N′-(2-cyano-9-methyl-9H-purin-6-yl)-N′-cyclohexyl-4-({[4-(4-methyl-1-piperazinyl)-1-piperidinyl]methyl}benzohydrazide trifluoroacetate] | 1 to 2.5 | 15 to 150 | 2.5 to 15
7 | CN(C)CCCn1cnc2c(N(NC(=O)c3ccc(CN4CCN(C)CC4)cc3)C3CCCC3)nc(C#N)nc21 [Example 17, N′-{2-cyano-9-[3-(dimethylamino)propyl]-9H-purin-6-yl}-N′-cyclo pentyl-4-[(4-methyl-1-piperazinyl)methyl]benzohydrazide trifluoroacetate] | 1 to 2.5 | 250 to 400 | 15 to 150
8 | CN1CCN(Cc2ccc(-c3cncc(C(=O)NN(c4nc(C#N)nc5c4ncn5C)C4CCCC4)c3)cc2)CC1 [Example 27, N′-(2-Cyano-9-methyl-9H-purin-6-yl)-N′-cyclopentyl-5-{4-[(4-methyl-1-piperazinyl)methyl]phenyl}-3-pyridinecarbohydrazide trifluoroacetate] | ≤ 1 | 15 to 150 | 15 to 150
9 | CN(C)CCn1cnc2c(N(NC(=O)c3cccc(-c4ccc(CN5CCN(C)CC5)cc4)n3)C3CCCCC3)nc(C#N)nc21 [Example 45, N′-{2-cyano-9-[2-(dimethylamino)ethyl]-9H-purin-6-yl}-N′-cyclohexyl-6-{4-[(4-methyl-1-piperazinyl)methyl]phenyl}-2-pyridinecarbohydrazide trifluoroacetate] | 2.5 to 15 | 15 to 150 | 15 to 150
10 | CN1CCN(C2CCN(Cc3ccc(C(=O)NN(CC4CCCC4)c4nc(C#N)nc5c4ncn5C)cc3)CC2)CC1 [Example 1, N′-(2-cyano-9-methyl-9H-purin-6-yl)-N′-(cyclopentylmethyl)-4-({[4-(4-methyl-1-piperazinyl)-1-piperidinyl]methyl}benzohydrazide trifluoroacetate] | 2.5 to 15 | 15 to 150 | 15 to 150
11 | CN1CCCC(CN2CCN(Cc3ccc(C(=O)NN(CC4CCCC4)c4nc(C#N)nc5c4ncn5C)cc3)CC2)C1 (centres unmarked) [Example 3, N′-(2-cyano-9-methyl-9H-purin-6-yl)-N′-(cyclopentylmethyl)-4-({4-[(1-methyl-3-piperidinyl)methyl]-1-piperazinyl}methyl)benzohydrazide trifluoroacetate] | 2.5 to 15 |  | 15 to 150
12 | CN(C)CCn1cnc2c(N(NC(=O)c3ccc(CN4CCN(C)CC4)cc3)C3CCCCC3)nc(C#N)nc21 [Example 44, N′-{2-cyano-9-[2-(dimethylamino)ethyl]-9H-purin-6-yl}-N′-cyclohexyl-4-[(4-methyl-1-piperazinyl)methyl]benzohydrazide trifluoroacetate] | 2.5 to 15 | 15 to 150 | 15 to 150
13 | CC(=O)N1CCC(N(NC(=O)OC(C)(C)C)c2nc(C#N)nc3c2ncn3C)CC1 [Example 20, 1,1-dimethylethyl-2-(1-acetyl-4-piperidinyl)-2-(2-cyano-9-methyl-9H-purin-6-yl)hydrazinecarboxylate] | 1 to 2.5 | 150 to 250 | 150 to 250
14 | CN1CCN(Cc2ccc(C(=O)NN(c3nc(C#N)nc4c3ncn4C(=O)N3CCN(C)CC3)C3CCCCC3)cc2)CC1 [Example 38, N′-{2-cyano-9-[(4-methyl-1-piperazinyl)carbonyl]-9H-purin-6-yl}-N′-cyclohexyl-4-[(4-methyl-1-piperazinyl)methyl]benzohydrazide trifluoroacetate] | ≤ 1 | 2.5 to 15 | 15 to 150
15 | CN1CCN(Cc2ccc(C(=O)NN(c3nc(C#N)nc4c3ncn4C(=O)N3CCN(C)CC3)C3CCCC3)cc2)CC1 [Example 34, N′-{2-cyano-9-[(4-methyl-1-piperazinyl)carbonyl]-9H-purin-6-yl}-N′-cyclopentyl-4-[(4-methyl-1-piperazinyl)methyl]benzohydrazide trifluoroacetate] | 1 to 2.5 | 15 to 150 | 15 to 150
16 | CN1CCN(Cc2ccc(C(=O)NN(CC3CCCC3)c3nc(C#N)nc4c3ncn4C)cc2)CC1 [Example 23, N′-(2-cyano-9-methyl-9H-purin-6-yl)-N′-(cyclopentylmethyl)-4-[(4-methyl-1-piperazinyl)methyl]benzohydrazide trifluoroacetate] | 2.5 to 15 | 15 to 150 | 400 to 1000
17 | CN(C)CCn1cnc2c(N(NC(=O)OC(C)(C)C)C3CCCC3)nc(C#N)nc21 [Example 39, 1,1-dimethylethyl 2-{2-cyano-9-[2-(dimethylamino)ethyl]-9H-purin-6-yl}-2-cyclopentylhydrazinecarboxylate trifluoroacetate] | 2.5 to 15 | 15 to 150 | 15 to 150
